Measurements reported in the NIST ThermoML archive (doi:10.1016/j.fluid.2006.05.015).

Conditions: Fluid (supercritical or subcritical phases), Constant-volume piezometry

O [water]
Conditions	mass density [kg/m3]
299.25 K, 5182 kPa	999.2
299.25 K, 31060 kPa	1010.4
349.12 K, 8540 kPa	977.86
349.12 K, 24440 kPa	984.93
399.57 K, 3183 kPa	939.45
399.57 K, 30090 kPa	952.6
438.94 K, 6455 kPa	905.35
438.94 K, 27860 kPa	917.35
494.18 K, 8890 kPa	844.81
494.18 K, 29240 kPa	859.91
555.43 K, 9803 kPa	751.67
555.43 K, 27940 kPa	777.34
617.27 K, 16300 kPa	603.42
617.27 K, 28080 kPa	653.82
